Legend:
[1] = Inhibition of Candida albicans Nce103 beta-carbonic anhydrase by stopped flow CO2 hydration assay
[2] = Inhibition of Cryptococcus neoformans Can2 beta-carbonic anhydrase by stopped flow CO2 hydration assay
Carbonic anhydrase 1 = Carbonic anhydrase 1 (Homo sapiens, UniProt P00915); test: Inhibition of human cytosolic carbonic anhydrase 1 by stopped flow CO2 hydration assay
Carbonic anhydrase 2 = Carbonic anhydrase 2 (Homo sapiens, UniProt P00918)

Chain of Carbonic anhydrase 1 (P00915 whole entry): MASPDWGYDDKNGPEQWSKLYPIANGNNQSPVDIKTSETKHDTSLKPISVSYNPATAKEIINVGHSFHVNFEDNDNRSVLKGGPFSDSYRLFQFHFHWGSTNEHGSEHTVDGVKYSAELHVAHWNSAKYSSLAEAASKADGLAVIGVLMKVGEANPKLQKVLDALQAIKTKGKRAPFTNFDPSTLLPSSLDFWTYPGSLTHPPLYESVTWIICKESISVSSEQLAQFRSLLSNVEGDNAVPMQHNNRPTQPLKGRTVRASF

Row | Structure (SMILES) | Ki [1] | Ki [2] | Ki (Carbonic anhydrase 1) | Ki (Carbonic anhydrase 2)
1 | O=C(O)c1ccc(CCl)cc1 | 4.71 µM | 3.65 µM | – | –
2 | CC(=O)[O-].[Na+] [SODIUM ACETATE] | – | – | 10.8 µM | –
3 | CCC(C)CCC(=O)O (centres undefined) | 1.25 µM | 0.8 µM | 420 µM | 112 µM
4 | CC(=O)Nc1nnc(S(N)(=O)=O)s1 [ACETAZOLAMIDE] | 0.13 µM | 0.01 µM | – | –
5 | O=C(O)c1ccc([N+](=O)[O-])cc1 | 4.85 µM | 0.12 µM | 8.8 µM | 8.56 µM
6 | O=C(O)c1ccc(S(=O)(=O)N(Cl)Cl)cc1 | 4.97 µM | 0.12 µM | 3.88 µM | 1.96 µM
7 | CN(C)c1ccc(C(=O)O)cc1 | 5.2 µM | 0.13 µM | 3.94 µM | 3.33 µM
8 | CCCC(C)C(=O)O (centres undefined) | 10.4 µM | 10.2 µM | 310 µM | 113 µM
9 | COc1ccc(C(=O)NN)cc1 | 0.81 µM | 0.087 µM | 7.84 µM | 5.75 µM
10 | CCC(C)CC(=O)O (centres undefined) | 11.1 µM | 34.9 µM | 104 µM | 281 µM
11 | CCCCC(CC)C(N)=O (centres undefined) | 5.7 µM | 0.39 µM | – | –
12 | COc1ccc(C(N)=O)cc1 | 0.54 µM | 0.062 µM | 4.34 µM | 2.18 µM
13 | O=C(O)c1ccc(O)cc1 | 0.11 µM | 0.0095 µM | 7.61 µM | –
14 | CCCCCC(C)C(=O)O (centres undefined) | 11.7 µM | 39.3 µM | – | 110 µM
15 | CCCC(=O)[O-].[Na+] [SODIUM BUTYRATE] | – | – | 511 µM | –
16 | COc1ccc(C(=O)O)cc1 | 0.15 µM | 0.0099 µM | 9.06 µM | 8.03 µM
17 | CCCCC(CC)CCC(=O)O (centres undefined) | 37.9 µM | 41.2 µM | 380 µM | –
18 | CC(C)CCC(=O)O | 2.14 µM | – | – | –
19 | CCCCCCC(CCCC)C(=O)O (centres undefined) | 10.7 µM | – | 101 µM | –
20 | CC(C)CC(=O)O [SODIUM ISOVALERATE] | 0.95 µM | 0.91 µM | 300 µM | 100 µM

Row | Structure (SMILES) | Ki [1] | Ki [2] | Ki (Carbonic anhydrase 1) | Ki (Carbonic anhydrase 2)
21 | O=C(O)c1ccc(F)cc1 | 1.09 µM | 0.13 µM | 7.39 µM | 3.34 µM
22 | CC(=O)Nc1ccc(C(=O)[O-])cc1.[Na+] | 0.34 µM | 0.32 µM | 4.04 µM | 7.28 µM
23 | Nc1ccc(C(=O)O)cc1 [AMINOBENZOATE SODIUM] | 2.95 µM | 0.12 µM | 8.4 µM | 8.13 µM
24 | CCCCC(CC)C(=O)O (centres undefined) | 43.1 µM | 0.95 µM | 450 µM | 93 µM
25 | CCCCC(CC)C(=O)NO (centres undefined) | 3.05 µM | 0.29 µM | – | –
26 | O=C[O-].[Na+] [SODIUM FORMATE] | – | – | 1040 µM | –
27 | CCCCC(=O)[O-].[Na+] [SODIUM VALERATE] | – | – | 55.3 µM | –
28 | CCCCC(CC)C(=O)OC (centres undefined) | 5.6 µM | 0.74 µM | – | –
29 | CCCCC(CC)C(=O)O (centres undefined) [2-ETHYLHEXANOIC ACID] | – | – | 450 µM | 93 µM
30 | COc1ccc(C(=O)NO)cc1 | 0.47 µM | 0.071 µM | – | –
31 | CC(C)C(=O)[O-].[Na+] [SODIUM ISOBUTYRATE] | 0.98 µM | 3.81 µM | 120 µM | 350 µM
32 | CCCCC(CC)C(=O)NN (centres undefined) | 4.56 µM | 0.23 µM | – | –
33 | CCC(=O)[O-].[Na+] [SODIUM PROPIONATE] | – | – | 1010 µM | –
34 | COC(=O)c1ccc(OC)cc1 [METHYL 4-METHOXYBENZOATE] | 0.61 µM | 0.067 µM | – | –
35 | O=C(O)c1ccc(I)cc1 | 5.17 µM | 5.46 µM | – | –
36 | Nc1cccc(C(=O)O)c1 | 3.4 µM | 3.06 µM | 8.79 µM | 8.63 µM
37 | COc1ccc(C(=O)O)cc1 [p-ANISIC ACID] | – | – | 9.06 µM | 8.03 µM
38 | N#Cc1ccc(C(=O)O)cc1 | 4.47 µM | 0.14 µM | – | –
39 | CCCCC(C)C(=O)O (centres undefined) | 3.73 µM | 3.23 µM | 380 µM | 103 µM
